Results on two substances are retold here after US20040234527A1, “Peptides for use as translocation factors” (priority 2001, published 2004).

Assay [1] can be described thus: β-Galactosidase activity of the protein constructs before delivery (luminometer). It is filed as biochemical. Particulars: 80 ng protein; Table 6 (first day). The procedure:
(§1) The quantitative measurement of translocation was carried out by reading the activity of a β-Galactosidase enzyme that was included as part of a fusion protein with the translocation agents. When provided with the appropriate galactoside substrate, the enzyme deglycosylates the substrate leading to the accumulation of dioxetane. During a following incubation in a different buffer, the dioxetane becomes deprotonated and decomposes with emission of light (425 nm) that can be read using a luminometer. This system, therefore, provided a sensitive means of detecting the amount of the β-Galactosidase present in the samples, and ultimately, the amount of fusion protein delivered into the cells.
(§2) It was decided to start with the amount of each that gave a value close to 6×10^7 rlu, as this is the limit of the equipment's capacity. From that value, three consecutive ⅕ fold dilutions were made in each case.
(§3) Therefore, the original activity of the different proteins was also measured in parallel to the activity recovered after translocation, in order to make sure that all the proteins were standardised to an original maximum activity of around 6×10^7 rlu.

The test system of the next assay is Hela cells. As to the kind of experiment: β-Galactosidase activity recovered from cell extracts after lipofectin delivery or translocation (4 hours). It is filed as cell-based. The procedure: as §1
The experiments were carried out using 8-well chamber slides. 3×10^4 Hela cells were seeded into each well, suplemented with 400 μl RPMI+10% FCS medium and incubated overnight at 37° C. and 5% CO2. The following day, the appropriate dilutions of protein were made into RPMI medium and added to the wells. Both lipofectin delivery and translocation experiments were carried out for 4 hours.
The experiments were carried out on two different days: the first day a negative control β-Galactosidase and the H1.4B-Bgal were tested, and the second day the antennapedia fusion (Antp-βgal) was tested. A lipofectin delivery of β-Galactosidase, provided by Roche, was performed on both days as positive control for delivery into the cells.
as §2, §3
The results after translocation were obtained by reading the β-Galactosidase recovered from the cell extracts and are shown in Tables 6 and 7. […] In any case, the values for the biggest amounts of β-Galactosidase protein are clearly lower than those obtained from the delivery systems.

Several values for one entry are separate records, joined by “and”; a condition that tells them apart may be missing. Equal values may be shown once.

Take “β-Galactosidase: β-Galactosidase enzyme without translocation agent, negative control”: the Protein activity result in assay [1] is given as “overload”. The Activity after transfection is 25.076 rlu and 28.710 rlu with Hela cells (640 pg protein, Table 6 (first day)); 29.527 rlu and 35.227 rlu in the assay on Hela cells (3.2 ng protein, Table 6 (first day)); 56.941 rlu in the assay with Hela cells (15 ng protein, Table 6 (first day)); 55.164 rlu in the assay with Hela cells (16 ng protein, Table 6 (first day)); 242.200 rlu and 298.589 rlu in the assay on Hela cells (80 ng protein, Table 6 (first day)).
On to “β-Gal positive control (Roche): β-Galactosidase provided by Roche, delivered with lipofectin reagent as positive control for delivery into the cells”, for which the Activity after transfection in the assay on Hela cells (1.6 ng protein, Table 6 (first day)) is 50.353 rlu and 47.212 rlu; in the assay with Hela cells (1.6 ng protein, Table 7 (second day)) it was 40.121 rlu and 33.578 rlu; in the assay with Hela cells (8 ng protein, Table 6 (first day)), 140.342 rlu and 162.319 rlu; with Hela cells (8 ng protein, Table 7 (second day)), 164.745 rlu and 157.913 rlu; in the assay with Hela cells (40 ng protein, Table 6 (first day)), 635.228 rlu and 675.640 rlu; in the assay on Hela cells (40 ng protein, Table 7 (second day)), 715.773 rlu and 744.405 rlu.
